Drawing on patent US20220324868A1, “Pyrazolone-Fused Pyrimidine Compound, and Preparation Method and Use Therefor” (SHANGHAI PHARMACEUTICALS HOLDING CO., LTD., priority 2019, published 2022), this text covers IC50 for 15 molecules.

One experiment deals with COLO 205 cells. Description: Proliferation inhibition of COLO 205 cells (Luminescence ATP Detection, ATPlite). Type of experiment: cell-based. Particulars: Homo sapiens; p53-deficient cell line COLO 205, 72 hours. On the procedure:
(§1) I. Proliferation Inhibitory of the Compound on COLO 205 Cells and Hela Cells.
(§2) COLO205 cells, purchased from SIBS, generation P11; Hela purchased from ATCC, generation P13.
Drug treatment of cells: on the third day of the experiment, microplates were removed from the incubator, 9× compound were added to each well in the microplate, and 5 μL was added to each well, wherein there were 2 replicate wells for each drug concentration and 10 drug concentrations for each compound. According to different cell lines, the initial concentration of each compound was different, after the completion, the microplate was cultured at 37° C. and 5% CO2 for 72 hours.
Data collection: The microplates were removed from the incubator and equilibrated at room temperature for 30 minutes. 100 μL of ATPlite reaction mixture after room temperature equilibrium was added to each well, the solution was shaken at room temperature of 1300 rpm for 2 minutes, and then the microplate was placed in a HERAEUS Multifuge X1R centrifuge at 2000 rpm for 1 minute; after equilibrium at room temperature for 10 minutes, the fluorescence signal value was measured on EnVision™.
(§3) Calculation of cell viability: Cell viability(%)=signal value of administration/signal value of controlx 100%. Graphpad Prism 5.0 was used to fit Log(inhibitor) vs. response-Variable slope (four parameters) curves to the fluorescence signal values at each concentration, and the corresponding IC50 (half maximal inhibitory concentration) was calculated.

The test system of the next experiment is Hela cells. Description: Proliferation inhibition of Hela cells (Luminescence ATP Detection, ATPlite). Particulars: Homo sapiens, 72 hours. Type of experiment: cell-based. The protocol:
as §1, §2
Cell culture and inoculation: on the first day of the experiment, cells in normal culture were taken in their exponential growth state, digested and dispersed, the cell density was adjusted to 9×10^3 cells/mL, and 40 μL per well were inoculated into 384-well cell culture plates; after inoculation was completed, the microplates were placed at 37° C. and 5% CO2 for incubation.
Drug treatment of cells: on the second day of the experiment, microplates were removed from the incubator, 9× compound were added to each well in the microplate, and 5 μL was added to each well, wherein there were 2 replicate wells for each drug concentration and 10 drug concentrations for each compound. According to different cell lines, the initial concentration of each compound was different, after the completion, the microplate was cultured at 37° C. and 5% CO2 for 72 hours.
Data collection: the microplates were removed from the incubator and equilibrated at room temperature for 30 minutes. 40 μL of ATPlite reaction mixture after room temperature equilibrium was added to each well, the solution was shaken at room temperature of 1300 rpm for 2 minutes, and then the microplate was placed in a HERAEUS Multifuge X1R centrifuge at 2000 rpm for 1 minute; after equilibrium at room temperature for 10 minutes, the fluorescence signal value was measured on EnVision™.
as §3
A general note: Cellular ATP, detected with luciferase, serves as a proxy for viable cell number.

Another experiment has as its target T1, WEE1 kinase (Homo sapiens, UniProt P30291).
T1 construct: purchased CarnaBiosciences, Inc. 05-177
Description: Inhibitory effect on WEE1 kinase in vitro (ELISA). It is filed as biochemical. Conditions: ATP concentration of Km (12 μM), WEE1 0.15 ng/μL, 60 min. On the procedure:
I. Inhibitory Effect of Compound on WEE1 Kinase In Vitro
The tested compounds were screened on WEE1 kinase with ATP concentration of Km by ELISA. Three compounds were screened on WEE1 kinase to evaluate the kinase inhibitory activity of the tested compounds. In the detection process, the initial concentration of the tested compounds was all selected as 100 nM, and each compound was selected with 6 gradient dilution concentrations, the gradient dilution ratio was 4-fold, and two replicate wells were detected for each concentration, MK1775 was used as the standard control.
1. Coating substrate: 1) An appropriate volume of substrate storage solution protein tyrosinase (PTK) substrate (poly-Glu-Tyr) was taken, diluted 10 times with PBS, and the concentration was diluted from […]. The mixture was added to a high adsorption 96-well plate at 125 μL per well. The plate was placed in an incubator at 37° C. for overnight coating. 2) After 24 hours, the 96-well plate was taken out, the liquid in the 96-well plate was poured out, cleaned with washing buffer for 3 times, and the incubator at 37 was inverted and dried for 2 hours.
3. Enzyme reaction stage: 1) WEE1 kinase and ATP were prepared into 2× enzyme solution and 4× ATP solution respectively with 1× reaction buffer.
4. Reaction termination stage: 1) the reaction mixture in the plate was poured out, 200 μL of washing buffer was added to each well, and washed for 5 times; the primary antibody P-Tyr (PY99) (dilution ratio 1:2000) was added, 100 μL per well, at room temperature for 30 min. 2) The primary antibody in the plate was poured out, 200 μL of washing buffer was added to each well, and washed for 5 times; the second antibody Anti-mouse IgG HRP-linked Antibody (dilution ratio 1:2000) was added, 100 μL per well, at room temperature for 30 min. 3) The secondary antibody in the plate was poured out, washed 5 times with washing buffer, and TMB was added, 100 μL per well, and colored for 10-30 min, depending on the color depth. The reaction was terminated with 1N sulfuric acid before reading.
5. […] 2) Graphpad Prism 5.0 was used to fit Log(inhibitor) vs. response-Variable slope (four parameters) curves to the data, and the corresponding IC50 (half maximal inhibitory concentration) was calculated.

Each structure is given as a SMILES string. Where two headings read alike, the source gives them in different places.

T1 sequence (P30291 whole entry): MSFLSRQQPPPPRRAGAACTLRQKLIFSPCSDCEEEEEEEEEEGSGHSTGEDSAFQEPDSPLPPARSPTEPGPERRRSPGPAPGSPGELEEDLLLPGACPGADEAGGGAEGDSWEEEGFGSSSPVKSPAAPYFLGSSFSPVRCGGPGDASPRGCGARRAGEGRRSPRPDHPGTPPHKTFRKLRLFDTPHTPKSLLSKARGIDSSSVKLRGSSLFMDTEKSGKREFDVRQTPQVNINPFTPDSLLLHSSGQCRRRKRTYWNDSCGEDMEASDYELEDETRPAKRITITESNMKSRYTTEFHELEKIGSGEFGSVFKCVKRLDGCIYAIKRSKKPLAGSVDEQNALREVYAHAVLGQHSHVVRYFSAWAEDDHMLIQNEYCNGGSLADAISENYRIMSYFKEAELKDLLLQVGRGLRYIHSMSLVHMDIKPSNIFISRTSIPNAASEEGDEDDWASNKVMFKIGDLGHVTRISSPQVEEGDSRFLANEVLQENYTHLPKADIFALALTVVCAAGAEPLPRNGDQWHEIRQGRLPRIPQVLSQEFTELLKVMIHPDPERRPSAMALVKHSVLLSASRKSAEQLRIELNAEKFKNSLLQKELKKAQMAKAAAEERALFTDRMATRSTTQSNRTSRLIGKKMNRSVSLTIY

With `C=CCn1c(=O)c2cnc(Nc3ccc(N4CCN(CC5CC5)CC4)cc3)nc2n1-c1ccc2c(n1)C(O)CC2` (stereo not drawn) [Compound I-4], the IC50 (as a rule, the concentration at which inhibition is half-maximal) worked out at 1970 nM in the experiment on COLO 205 cells, 395 nM in the experiment on Hela cells and 4.43 nM at WEE1 kinase (read-out: WEE1 IC50).
In the case of `C=CCn1c(=O)c2cnc(Nc3ccc(N4CC5(CCN(C)CC5)C4)cc3)nc2n1-c1ccc2c(n1)C(C)(O)CC2` (stereo not drawn) [Compound I-14, 2-allyl-1-(7-hydroxy-7-methyl-6,7-dihydro-5H-cyclopenta[b]pyridin-2-yl)-6-((4-(7-methyl-2,7-diazaspiro[3.5]nonan-2-yl)phenyl)amino)-1,2-dihydro-3H-pyrazolo[3,4-d]pyrimidin-3-one], the IC50 with COLO 205 cells was determined as 363 nM; in the experiment on Hela cells it was 192 nM; at WEE1 kinase (read-out: WEE1 IC50), 2.81 nM.
For `C=CCn1c(=O)c2cnc(Nc3ccc(N4CCC5(CCN(C)CC5)CC4)cc3)nc2n1-c1ccc2c(n1)C(O)CC2` (stereo not drawn) [Compound I-9, 2-allyl-1-(7-hydroxy-6,7-dihydro-5H-cyclopenta[b]pyridin-2-yl)-6-((4-(9-methyl-3,9-diazaspiro[5.5]undecan-3-yl)phenyl)amino)-1,2-dihydro-3H-pyrazolo[3,4-d]pyrimidin-3-one], in that order: 614 nM, 191 nM and 2.87 nM.
For the molecule `C=CCn1c(=O)c2cnc(Nc3ccc(N4CCN(CC)CC4)cc3)nc2n1-c1ccc2c(n1)C(O)CC2` (stereo not drawn) [Compound I-2], the IC50 in the experiment with COLO 205 cells was found to be 1740 nM; in the experiment with Hela cells it was 345 nM; on WEE1 kinase (read-out: WEE1 IC50) it was 2.55 nM.
Regarding `C=CCn1c(=O)c2cnc(Nc3ccc(N4CCN(C)CC4)cc3)nc2n1-c1ccc2c(n1)C(O)CCC2` (stereo not drawn) [Compound I-23], the figures for the IC50 in the experiment on COLO 205 cells, in the experiment with Hela cells and on WEE1 kinase (read-out: WEE1 IC50) were 1670 nM, 534 nM and 2.87 nM, respectively.
The matching figures for `C=CCn1c(=O)c2cnc(Nc3ccc(N4CC5(CCN(CC)CC5)C4)cc3)nc2n1-c1ccc2c(n1)C(O)CC2` (stereo not drawn) [Compound I-11]: 1190 nM, 317 nM and 11.3 nM.
For `C=CCn1c(=O)c2cnc(Nc3ccc(N4CCN(C)CC4)cc3)nc2n1-c1ccc2c(n1)C(C)(O)CC2` (stereo not drawn) [Compound I-16, 2-allyl-1-(7-hydroxy-7-methyl-6,7-dihydro-5H-cyclopenta[b]pyridin-2-yl)-6-((4-(4-methylpiperazin-1-yl)phenyl)amino)-1,2-dihydro-3H-pyrazolo[3,4-d]pyrimidin-3-one], the IC50 in the experiment with COLO 205 cells worked out at 1620 nM; with Hela cells, 316 nM; against WEE1 kinase (WEE1 IC50, nM), 3.99 nM.
Turning to `C=CCn1c(=O)c2cnc(Nc3ccc(N4C[C@H]5CN(C)C[C@H]5C4)cc3)nc2n1-c1ccc2c(n1)C(C)(O)CCC2` (stereo partly drawn) [Compound I-32, 2-allyl-1-(8-hydroxy-8-methyl-5,6,7,8-tetrahydroquinolin-2-yl)-6-((4-((3aR,6aS)-5-methylhexahydropyrrolo[3,4-c]pyrrole-2(1H)-yl)phenyl)amino)-1,2-dihydro-3H-pyrazolo[3,4-d]pyrimidin-3-one], the results for the IC50 in the experiment with COLO 205 cells, in the experiment with Hela cells and on WEE1 kinase (read-out: WEE1 IC50) were 541 nM, 148 nM and 4.79 nM, respectively.
Take `C=CCn1c(=O)c2cnc(Nc3ccc(N4CCN(C)CC4)cc3)nc2n1-c1ccc2c(n1)C(C)(O)CCC2` (stereo not drawn) [Compound I-19, 2-allyl-1-(8-hydroxy-8-methyl-5,6,7,8-tetrahydroquinolin-2-yl)-6-((4-(4-methylpiperazin-1-yl)phenyl)amino)-1,2-dihydro-3H-pyrazolo[3,4-d]pyrimidin-3-one]: the IC50 stood at 944 nM in the experiment on COLO 205 cells; 170 nM with Hela cells; 1.89 nM on WEE1 kinase (WEE1 IC50, nM).
For `C=CCn1c(=O)c2cnc(Nc3ccc(N4C[C@@H]5CN(C6CCC6)C[C@@H]5C4)cc3)nc2n1-c1ccc2c(n1)C(O)CC2` (stereo partly drawn) [Compound I-38], the results for the IC50 in the experiment on COLO 205 cells, in the experiment with Hela cells and on WEE1 kinase (read-out: WEE1 IC50) were 451 nM, 134 nM and 2.43 nM, respectively.
For `C=CCn1c(=O)c2cnc(Nc3ccc(N4CCC5(CC4)CN(C)C5)cc3)nc2n1-c1ccc2c(n1)C(C)(O)CC2` (stereo not drawn) [Compound I-13, 2-allyl-1-(7-hydroxy-7-methyl-6,7-dihydro-5H-cyclopenta[b]pyridin-2-yl)-6-((4-(2-methyl-2,7-diazaspiro[3.5]nonan-7-yl)phenyl)amino)-1,2-dihydro-3H-pyrazolo[3,4-d]pyrimidin-3-one], in that order: 886 nM, 190 nM and 3.41 nM.
The matching figures for `C=CCn1c(=O)c2cnc(Nc3ccc(C4CCN(C)CC4)cc3)nc2n1-c1ccc2c(n1)C(O)CC2` (stereo not drawn) [Compound I-3]: 5150 nM, 434 nM and 2.68 nM.
For the molecule `C=CCn1c(=O)c2cnc(Nc3ccc(N4CCN(C)CC4)cc3)nc2n1-c1ccc2c(n1)C(O)CC2` (stereo not drawn) [Compound I-1, 2-allyl-1-(7-hydroxy-6,7-dihydro-5H-cyclopenta[b]pyridin-2-yl)-6-((4-(4-methylpiperazin-1-yl)phenyl)amino)-1,2-dihydro-3H-pyrazolo[3,4-d]pyrimidin-3-one], the IC50 with COLO 205 cells was 1880 nM; in the experiment on Hela cells it was 495 nM; at WEE1 kinase (WEE1 IC50, nM), 2.85 nM.
As to `C=CCn1c(=O)c2cnc(Nc3ccc(N4C[C@@H]5CN(C(C)C6CC6)C[C@@H]5C4)cc3)nc2n1-c1ccc2c(n1)C(O)CC2` (stereo partly drawn) [Compound I-41], the IC50 in the experiment on COLO 205 cells came out at 786 nM; with Hela cells it was 224 nM; at WEE1 kinase (read-out: WEE1 IC50), 10.6 nM.
The matching figures for `C=CCn1c(=O)c2cnc(Nc3ccc(C4CCC(N(C)C)CC4)cc3)nc2n1-c1ccc2c(n1)C(C)(O)CC2` (stereo not drawn) [Compound I-34]: 1580 nM, 214 nM and 4.79 nM.
